From the NIST ThermoML archive (doi:10.1016/j.jct.2012.11.032)

Assay: xn = mol fraction of the nth substance listed
Conditions: 101 kPa, Liquid; for speed of sound: Sing-around technique in a fixed-path interferometer; for mass density: Vibrating tube method

CCCCCCCC[n+]1ccn(C)c1.[Cl-] [1-methyl-3-octylimidazolium chloride] + O
Conditions | mass density, 283 K [kg/m3] | mass density, 288 K [kg/m3] | mass density, 293 K [kg/m3] | speed of sound, 283 K [m/s] | speed of sound, 288 K [m/s] | speed of sound, 293 K [m/s] | speed of sound, 298 K [m/s]
x1 = 0.000276 | 999.831 | 999.227 | 998.326 | 1451.5 | 1469.6 | 1485.5 | 1499.5
x1 = 0.000495 | 999.918 | 999.302 | 998.392 | 1454.3 | 1471.9 | 1487.7 | 1501.5
x1 = 0.000781 | 1000.05 | 999.421 | 998.497 | 1457 | 1474.6 | 1490.3 | 1503.9
x1 = 0.00102 | 1000.16 | 999.519 | 998.584 | 1460.1 | 1477.3 | 1492.6 | 1506.1
x1 = 0.0013 | 1000.3 | 999.641 | 998.69 | 1463.2 | 1480.2 | 1495.3 | 1508.5
x1 = 0.001503 | 1000.38 | 999.712 | 998.751 | 1465.5 | 1482.2 | 1497.2 | 1510.3
x1 = 0.001892 | 1000.56 | 999.863 | 998.879 | 1469.7 | 1486.1 | 1500.8 | 1513.6
x1 = 0.002073 | 1000.64 | 999.938 | 998.946 | 1471.7 | 1488 | 1502.5 | 1515.2
x1 = 0.002376 | 1000.78 | 1000.06 | 999.051 | 1474.9 | 1490.9 | 1505.2 | 1517.6
x1 = 0.00261 | 1000.89 | 1000.15 | 999.124 | 1477.4 | 1493.3 | 1507.3 | 1519.6
x1 = 0.002774 | 1000.96 | 1000.21 | 999.173 | 1479 | 1494.7 | 1508.7 | 1520.8
x1 = 0.003111 | 1001.11 | 1000.35 | 999.291 | 1482.5 | 1497.9 | 1511.6 | 1523.5
x1 = 0.003716 | 1001.38 | 1000.58 | 999.491 | 1488.4 | 1503.2 | 1516.5 | 1527.9
x1 = 0.003899 | 1001.46 | 1000.64 | 999.54 | 1489.7 | 1504.7 | 1517.8 | 1529.1
x1 = 0.004079 | 1001.55 | 1000.72 | 999.608 | 1491.9 | 1506.4 | 1519.3 | 1530.5
x1 = 0.004181 | 1001.59 | 1000.75 | 999.636 | 1492.8 | 1507.3 | 1520.1 | 1531.2
x1 = 0.004462 | 1001.71 | 1000.85 | 999.721 | 1495.5 | 1509.7 | 1522.3 | 1533.1
x1 = 0.004601 | 1001.77 | 1000.9 | 999.764 | 1496.8 | 1510.9 | 1523.3 | 1534
x1 = 0.004981 | 1001.93 | 1001.04 | 999.873 | 1500.1 | 1513.8 | 1525.9 | 1536.3
x1 = 0.005198 | 1002.02 | 1001.12 | 999.935 | 1501.6 | 1515.3 | 1527.2 | 1537.5
x1 = 0.005607 | 1002.2 | 1001.27 | 1000.06 | 1505.4 | 1518.4 | 1529.9 | 1539.8
x1 = 0.005782 | 1002.27 | 1001.32 | 1000.1 | 1506.8 | 1519.6 | 1530.9 | 1540.7
